The results in this text go back to ChEMBL document CHEMBL5230100, “Novel quinazoline-based EGFR kinase inhibitors: A review focussing on SAR and molecular docking studies (2015-2019)” (Eur J Med Chem, 2020).

The target of one series is Caspase-3 (Homo sapiens) (UniProt P42574). As to the kind of experiment: Activation of caspase 3 (unknown origin). Conditions: filed as activator.
For a further series, the system named is A-431. Nature of the series: Antiproliferative activity against human A-431 cells assessed as cell growth inhibition incubated for 24 hrs by MTT assay. It counts as functional. In general terms: Tetrazolium dyes change colour on reduction, which living cells bring about.
The next series deals with A549. Nature of the series: Induction of apoptosis in human A549 cells measured after 48 hrs by Annexin V-FITC/ Propidium iodide staining based flow cytometry relative to control. It counts as functional. In general terms: A flow cytometer gives signals particle by particle.
The nature of series [1]: MRT (0 to 24 hrs) in Sprague-Dawley rat plasma at 10 mg/kg, iv by LC-MS/MS analysis. The class given is ADME, organism-based.
A short description of series [2]: Half life in Sprague-Dawley rat plasma at 10 mg/kg, iv by LC-MS/MS analysis. The conditions noted are these: in vivo. The class given is ADME, organism-based.
Series [3] in a line: AUClast in Sprague-Dawley rat plasma at 10 mg/kg, iv by LC-MS/MS analysis. It counts as ADME, organism-based. Also on record: dose 10 mg/kg, route iv.
A short description of series [4]: AUC (0 to infinity) in Sprague-Dawley rat plasma at 10 mg/kg, iv by LC-MS/MS analysis. The class given is ADME, organism-based. Also on record: dose 10 mg/kg, route iv.
Series [5] can be described thus: Volume of distribution at steady state in Sprague-Dawley rat at 10 mg/kg, iv by LC-MS/MS analysis. It counts as ADME, organism-based. Conditions: in vivo.
The nature of series [6]: Half life in human liver microsomes by LC-MS/MS analysis. It counts as ADME. A general note: Microsomes from liver hold many membrane-bound enzymes, among them those of drug oxidation.

One may read the MRT last as the average time that molecules of a dose stay in the body. As usually defined, the AUC(0-t) is the area under the concentration-time curve up to a stated or last time point. Lower therefore signals less exposure. Usually AUC(0-inf) stands for the area under the concentration-time curve extrapolated to infinity. Read a low AUC(0-inf) as low exposure. The Vdss is a proportionality between amount in the body and measured concentration, not a real space. Lower therefore signals little distribution into tissue.

Chain of Caspase-3 (Homo sapiens) (P42574 29-175 limits assumed): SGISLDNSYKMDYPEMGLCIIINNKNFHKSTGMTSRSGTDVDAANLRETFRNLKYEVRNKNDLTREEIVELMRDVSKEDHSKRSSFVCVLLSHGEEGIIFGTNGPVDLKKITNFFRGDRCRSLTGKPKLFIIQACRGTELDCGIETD
Chain of Caspase-3 (Homo sapiens) (P42574 176-277 limits assumed): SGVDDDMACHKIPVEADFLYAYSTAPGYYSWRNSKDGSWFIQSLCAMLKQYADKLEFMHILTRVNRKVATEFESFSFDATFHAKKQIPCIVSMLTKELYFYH

With `C#Cc1cccc(Nc2ncnc3cc(OCCOC)c(OCCOC)cc23)c1` [ERLOTINIB], the Activity at Caspase-3 (Homo sapiens) amounted to 480 pg/mL; with A549, 53.9%. Also, in the series with A-431, the IC5 stood at 3 µM.
In turn, `COc1cc2ncnc(Nc3ccc(F)c(Cl)c3)c2cc1OCCCN1CCOCC1` [GEFITINIB] had an MRT last in [1] of 4.54 h. The t1/2 in [2] was 3.85 h; in series [6] it was 0.3752 h. The AUC(0-t) in series [3] came to 7720 ng·h/mL. In [4], the AUC(0-inf) is 7800 ng·h/mL. For the same compound, in series [5], the Vdss was 5.93 L/kg.
